The structures appear in SMILES notation.

This is an account of results in patent US10946012B2, “Methods for inducing tumor regression, inhibiting tumor growth, and inducing apoptosis in breast tumors with geranylgeranyltransferase I inhibitors” (H. Lee Moffitt Cancer Center and Research Institute, Inc., priority 2009, dated 2021).

In one test the test system is Cdk2. The following applies: previous report (Adnane et al. 1998); cited from earlier work.
In a further test the target is T1, GGTase I (Homo sapiens, UniProt P49354+P53609).
T1 construct: GGTase I and FTase activities from 60,000×g supernatants of human Burkitt's lymphoma (Daudi) cells; host or cells: Daudi (human Burkitt's lymphoma) cells, 60,000xg supernatant
The test is described as follows: In vitro GGTase I activity assay ([3H]GGPP transfer to H-Ras-CVLL). It counts as biochemical. The protocol:
(§1) A brief discussion of exemplary materials and methods follows. In vitro FTase and GGTase I activity assays were performed. GGTase I and FTase activities from 60,000×g supernatants of human Burkitt's lymphoma (Daudi) cells (American Type Culture Collection (ATCC), Rockville, Md.) were assayed as described previously.

The target of a further test is T2, FTase (Homo sapiens, UniProt P49354+P49356).
T2 construct: GGTase I and FTase activities from 60,000×g supernatants of human Burkitt's lymphoma (Daudi) cells; host or cells: Daudi (human Burkitt's lymphoma) cells, 60,000xg supernatant
The test is described as follows: In vitro FTase activity assay ([3H]FPP transfer to H-Ras-CVLS). It counts as biochemical. The following applies: read-out: IC50, inhibition of FTase activity. The protocol: as §1

Test [1] deals with MDA-MB-231 breast cancer tumors. The test is described as follows: Anti-tumor activity in the nude mouse tumor xenograft model. It counts as in vivo, nude mice. Particulars: for average tumor size: vehicle 860±87. The procedure:
Nude mice (nu/nu, Charles River, Wilmington, Mass.) were maintained in accordance with the Institutional Animal Care and Use Committee (IACUC) procedures and guidelines. MDA-MB-231 cells were harvested via trypsinization, pelleted at 805×g for 5 min, and re-suspended in a 50:50 mixture of sterile PBS and Matrigel (BD Biosciences) at 10×10^6 cells per 100 μl. A volume of 100 μl (˜10×10^6 cells) was injected orthotopically into the upper mammary fat pads of nude mice. The tumor xenografts were monitored by electronic caliper measurements and tumor volume (V) was calculated using the formula V=W^2L/2, where width (W) is […]. When the tumors reached ˜100 mm^3, the animals were randomized and injected intraperiteoneally daily with vehicle (70% DMSO), or 100 mg/kg GGTI-2417 or GGTI-2418, or every third day with GGTI-2418 (200 mg/kg. Tumors were measured every third day for 12-18 days.

In test [2] the test system is ErbB2-driven mammary tumors. The test is described as follows: Anti-tumor activity in the ErbB2 transgenic mouse model. It counts as in vivo. The source says: (§2) A breeding pair of homozygous FVB/N-Tg (MMTVneu) 202Mul/J mice (JAX #002376, Bar Harbor, Me.) was used to generate a transgenic colony in accordance to IACUC protocols and procedures. Phenotypically, these mice overexpress the receptor tyrosine kinase ErbB2 driven by the MMTV promoter, which results in tumor formation at ˜200 days of age. Once tumors reached sizes above 800 mm^3, osmotic mini-pumps (Alzet, Cupertino, Calif.) were loaded with either vehicle (80% PEG300; 20% DMSO) or GGTI-2418 (100 mg/kg daily) and implanted subcutaneously under the dorsal surface of the mouse, between the shoulder blades. Vehicle or GGTI-2418 was constantly delivered for 14 days, during which tumor volumes were measured and calculated as described above. Tumor biopsies were snap frozen in liquid N2 and stored at −80° C. until further processed. Weighted tumor samples were mixed with the appropriate amount of T-PER® Tissue Protein Extraction Reagent (Pierce, Rockford, Ill.) containing protease inhibitor cocktail, 2 mM PMSF, 2 mM Na3VO4, and 6.4 mg/ml p-nitrophenylphosphate and homogenized with the PCR Tissue Homogenizing Kit (Fisher Scientific). The homogenate was centrifuged at 13,000×g for 30 min at 4° C. and the supernatant was subjected to Western blotting with the indicated antibodies.

Another test relates to p27, Rap1, phospho-Akt. The test is described as follows: Western blot of tumor biopsies from ErbB2 transgenic mice. It counts as in vivo, mouse.
Description: as §2

In test [3] the test system is MDA-MB-468 breast cancer cells. The test is described as follows: Trypan Blue exclusion assay (proliferation, cell death) in MDA-MB-468 cells. In kind it is cell-based, human. Particulars: 5 nM p27 siRNA; 50 μM GGTI-2417 or 1 μM taxol. The procedure: Human MDA-MB-468 and MDA-MB-231 breast cancer cells and murine NIH 3T3 cells were obtained from the ATCC and cultured in DMEM medium. Human SK-Br3 and BT-474 breast cancer cells (ATCC) were cultured in McCoy's 5a medium and Hybri-Care medium, respectively. Mouse embryonic fibroblast (MEF) cells from p27 wild-type and p27 null mice were grown in DMEM. All media were supplemented with 10% fetal calf serum, 10 units/ml penicillin, and 10 μg/ml streptomycin. Subconfluent cells were treated with different concentrations of GGTI, FTI or DMSO vehicle for specific time periods. After treatment, cells were harvested by trypsinization.
Pre-designed siRNA to p27 (Cat #118714) and the negative control (Cat #4611) were purchased from Ambion (Austin, Tex.). Twenty-four hours before transfection, MDA-MB-468 cells were plated onto twelve-well plates in fresh DMEM medium containing 10% FBS and no antibiotics. Transient transfection of siRNA was carried out using Oligofectamine reagent (Invitrogen, Carlsbad, Calif.), following the manufacturer's instructions. In brief, 5 nM of p27 siRNA or control siRNA were mixed with Opti-MEM medium (Invitrogen) in such a way so that the total volume went to 90 μl, and then complexed with a mixture of 2 μl of Oligofectamine and 8 μl Opti-MEM; the total volume of RNA:Oligofectamine complex was 100 μl. The RNA:Oligofectamine complex was then incubated for 20 min at room temperature before adding to the cells. Before transfection, the old medium was discarded, cells were washed once with fresh Opti-MEM and 400 μl of fresh Opti-MEM placed into each well before adding the RNA:Oligofectamine complex to each well. The final diluted volume on each well was 500 μl. After 8 h, 500 μl DMEM containing 30% FBS was added to each well and cells were further incubated for 40 h.
Adherent cells were harvested by trypsinization and diluted with 0.4% Trypan Blue dye and counted on a hemacytometer. Cells excluding the dye were scored as live cells, whereas cells absorbing the dye were scored as dead cells. Cell proliferation was determined by dividing the number of live cells in the treated sample by the number of live cells in the control, and the degree of cell death was expressed as percentage of dead cells of the total cell number.

With `COC(=O)[C@H](CC(C)C)NC(=O)c1ccc(NC[C@@H](N)CS)cc1-c1cccc2ccccc12` [GGTI-298], the Cdk2 activity entry in the test on Cdk2 is on record as “inhibits Cdk2 activity”.

For the compound `Cc1nc[nH]c1CN1CCN(C(=O)N[C@@H](CC(C)C)C(=O)O)[C@@H](Cc2ccccc2)C1=O` [GGTI-2418], the Ki at GGTase I (in vitro competition assay, read-out: Ki, competitive inhibition of GGTase I against H-Ras-CVLL protein) amounted to 4.4 ± 1.6 nM. For the same compound, the 50% inhibitory concentration (IC50) on GGTase I (in vitro, H-Ras-CVLL, [3H]GGPP, read-out: IC50, inhibition of GGTase I activity) turned out to be 9.5 ± 2 nM. In addition, at FTase, the IC50 is 53000 ± 11000 nM. In test [1] (100 mg/kg daily i.p.), this compound showed a tumor growth inhibition of 94% and an average tumor size of 139±17 mm^3. Moreover, in test [1] (200 mg/kg every 3rd day i.p.), the tumor growth inhibition is reported as 77% and the average tumor size was determined as 276±26 mm^3. The “tumor regression, average (S.E.M.)” value in test [2] (100 mg/kg, 7 mice, 17 tumors) is listed as 60±4%. Besides, the “tumor decrease, representative example” value in test [2] (100 mg/kg/day, osmotic mini-pump) was found to be 76%. Moreover, in the test with p27, Rap1, phospho-Akt (pre vs post treatment biopsies), the “S473 phosphorylation of Akt in tumors” value is given as “dramatic decrease” and the “geranylgeranylation of Rap1 in tumors” value was “inhibited the geranylgeranylation of Rap1”. Further, in the test on p27, Rap1, phospho-Akt (vehicle 0.63±0.19 fold, p=0.03), the “change of p27 in post-treatment tumor samples (densitometry)” value was determined as 2.68±0.63 fold.

As for `CC(=O)O[C@H]1C(=O)[C@@]2(C)[C@H]([C@H](OC(=O)c3ccccc3)[C@]3(O)C[C@H](OC(=O)[C@H](O)[C@@H](NC(=O)c4ccccc4)c4ccccc4)C(C)=C1C3(C)C)[C@]1(OC(C)=O)CO[C@@H]1C[C@@H]2O` [taxol, reference compound], the “tumor cell death in the presence of p27 siRNA” value in test [3] is reported as “could still die”.
